Test system: MV-4-11 cells
Experiment: Gene expression microarray analysis (Affymetrix PrimeView) and GSEA
Assay type: cell-based, human
Set-up: RFU PODN (11730768_x_at) / Fold change /veh PODN (11730768_x_at) / RFU LINC00158 (11744669_a_at) / Fold change /veh LINC00158 (11744669_a_at) / RFU DUSP10 (11751237_a_at) / Fold change /veh DUSP10 (11751237_a_at) / RFU ID3 (11757404_x_at) / Fold change /veh ID3 (11757404_x_at) / RFU PLEKHG5 (11737974_s_at) / Fold change /veh PLEKHG5 (11737974_s_at) / RFU LRRC4B (11730491_at) / Fold change /veh LRRC4B (11730491_at) / RFU GIMAP4 (11747438_a_at) / Fold change /veh GIMAP4 (11747438_a_at) / RFU KRT8 (11758183_x_at) / Fold change /veh KRT8 (11758183_x_at) / RFU CNN1 (11734310_a_at) / Fold change /veh CNN1 (11734310_a_at) / RFU VPS37D (11726825_at) / Fold change /veh VPS37D (11726825_at) / RFU C10orf10 (11716522_x_at) / Fold change /veh C10orf10 (11716522_x_at) / RFU KIR2DL2 /// KIR2DL4 /// KIR2DL5A /// KIR2DL5B /// KIR2DS1 /// KIR2DS2 /// KIR2DS3 /// KIR2DS4 /// KIR3DL3 /// KIR3DL3 /// KIR3DS1 (11738374_at) / Fold change /veh KIR2DL2 /// KIR2DL4 /// KIR2DL5A /// KIR2DL5B /// KIR2DS1 /// KIR2DS2 /// KIR2DS3 /// KIR2DS4 /// KIR3DL3 /// KIR3DL3 /// KIR3DS1 (11738374_at) / RFU C1QL1 (11718748_at) / Fold change /veh C1QL1 (11718748_at) / RFU TMPRSS4 (11747572_a_at) / Fold change /veh TMPRSS4 (11747572_a_at) / RFU HAMP (11756126_x_at) / Fold change /veh HAMP (11756126_x_at) / RFU RNFT2 (11725882_a_at) / Fold change /veh RNFT2 (11725882_a_at) / RFU NR4A2 (11747474_a_at) / Fold change /veh NR4A2 (11747474_a_at) / RFU ABCC12 (11746883_a_at) / Fold change /veh ABCC12 (11746883_a_at) / RFU TMEM136 (11760407_x_at) / Fold change /veh TMEM136 (11760407_x_at) / RFU CLDN22 /// WWC2 (11732394_at) / Fold change /veh CLDN22 /// WWC2 (11732394_at) / RFU HLA-DPB1 (11760878_x_at) / Fold change /veh HLA-DPB1 (11760878_x_at) / RFU SPINT1 (11716480_a_at) / Fold change /veh SPINT1 (11716480_a_at) / RFU GAP43 (11754022_s_at) / Fold change /veh GAP43 (11754022_s_at) / RFU A4GNT (11735810_at) / Fold change /veh A4GNT (11735810_at) / RFU PRB3 (11715151_x_at) / Fold change /veh PRB3 (11715151_x_at) / RFU TUBB4B (11761932_at) / Fold change /veh TUBB4B (11761932_at) / RFU CAPN14 (11732068_a_at) / Fold change /veh CAPN14 (11732068_a_at) / RFU TMCC2 (11721928_a_at) / Fold change /veh TMCC2 (11721928_a_at) / RFU IRGQ (11745062_a_at) / Fold change /veh IRGQ (11745062_a_at) / RFU FAM174B (11720279_a_at) / Fold change /veh FAM174B (11720279_a_at) / RFU TMPRSS4 (11748680_a_at) / Fold change /veh TMPRSS4 (11748680_a_at) / RFU FAM212B (11763350_a_at) / Fold change /veh FAM212B (11763350_a_at) / RFU PLEKHG5 (11743358_a_at) / Fold change /veh PLEKHG5 (11743358_a_at) / RFU ZSCAN30 (11745921_a_at) / Fold change /veh ZSCAN30 (11745921_a_at) / RFU CMKLR1 (11741424_a_at) / Fold change /veh CMKLR1 (11741424_a_at) / RFU LOC101060620 /// MAPK8IP1 (11723275_at) / Fold change /veh LOC101060620 /// MAPK8IP1 (11723275_at) / RFU SPTSSB (11747773_x_at) / Fold change /veh SPTSSB (11747773_x_at) / RFU PRSS12 (11739890_at) / Fold change /veh PRSS12 (11739890_at) / RFU BIN1 (11741810_x_at) / Fold change /veh BIN1 (11741810_x_at) / RFU WNT11 (11732464_a_at) / Fold change /veh WNT11 (11732464_a_at) / RFU C10orf10 (11716521_a_at) / Fold change /veh C10orf10 (11716521_a_at) / RFU C5orf56 (11738089_at) / Fold change /veh C5orf56 (11738089_at) / RFU CYB561 (11721691_x_at) / Fold change /veh CYB561 (11721691_x_at) / RFU ANKRD19P (11752326_a_at) / Fold change /veh ANKRD19P (11752326_a_at) / RFU OR2T12 /// OR2T33 /// OR2T8 (11738714_s_at) / Fold change /veh OR2T12 /// OR2T33 /// OR2T8 (11738714_s_at) / RFU VCAN (11748164_a_at) / Fold change /veh VCAN (11748164_a_at) / RFU JSRP1 (11732532_at) / Fold change /veh JSRP1 (11732532_at) / RFU KRTAP10-11 (11738290_x_at) / Fold change /veh KRTAP10-11 (11738290_x_at) / RFU MYO3A (11730013_a_at) / Fold change /veh MYO3A (11730013_a_at) / RFU EBF3 (11725865_a_at) / Fold change /veh EBF3 (11725865_a_at) / RFU CAMK2N1 (11719241_x_at) / Fold change /veh CAMK2N1 (11719241_x_at) / RFU C5orf56 (11738088_a_at) / Fold change /veh C5orf56 (11738088_a_at) / RFU OLFML3 (11715873_a_at) / Fold change /veh OLFML3 (11715873_a_at) / RFU LOC100653217 /// NTM (11731650_a_at) / Fold change /veh LOC100653217 /// NTM (11731650_a_at) / RFU MAPK11 (11762145_a_at) / Fold change /veh MAPK11 (11762145_a_at) / RFU FIZ1 (11724087_x_at) / Fold change /veh FIZ1 (11724087_x_at) / RFU OASL (11726364_x_at) / Fold change /veh OASL (11726364_x_at) / RFU SOX15 (11748057_x_at) / Fold change /veh SOX15 (11748057_x_at) / RFU CD79A (11719716_a_at) / Fold change /veh CD79A (11719716_a_at) / RFU HIST1H1D (11736915_at) / Fold change /veh HIST1H1D (11736915_at) / RFU CASKIN2 (11723855_a_at) / Fold change /veh CASKIN2 (11723855_a_at) / RFU LOC730098 (11760151_x_at) / Fold change /veh LOC730098 (11760151_x_at) / RFU OR4N2 (11742367_at) / Fold change /veh OR4N2 (11742367_at) / RFU PRRT2 (11749266_a_at) / Fold change /veh PRRT2 (11749266_a_at) / RFU SNX32 (11753110_a_at) / Fold change /veh SNX32 (11753110_a_at) / RFU CDHR5 (11726645_a_at) / Fold change /veh CDHR5 (11726645_a_at) / RFU RCAN1 (11760418_a_at) / Fold change /veh RCAN1 (11760418_a_at) / RFU FAM167A (11723789_a_at) / Fold change /veh FAM167A (11723789_a_at) / RFU FAM26E (11764081_at) / Fold change /veh FAM26E (11764081_at) / RFU ISYNA1 (11749810_s_at) / Fold change /veh ISYNA1 (11749810_s_at) / RFU ACY1 (11761880_at) / Fold change /veh ACY1 (11761880_at) / RFU 11764098_at / Fold change /veh 11764098_at / RFU SAMD14 (11745864_x_at) / Fold change /veh SAMD14 (11745864_x_at) / RFU NPB (11741838_a_at) / Fold change /veh NPB (11741838_a_at) / RFU TMPRSS6 (11731388_a_at) / Fold change /veh TMPRSS6 (11731388_a_at) / RFU KRTAP10-2 (11738614_at) / Fold change /veh KRTAP10-2 (11738614_at) / RFU ARHGAP8 /// PRR5-ARHGAP8 (11727945_x_at) / Fold change /veh ARHGAP8 /// PRR5-ARHGAP8 (11727945_x_at) / RFU KRTAP5-7 /// NADSYN1 (11734609_at) / Fold change /veh KRTAP5-7 /// NADSYN1 (11734609_at) / RFU RASL12 (11751679_a_at) / Fold change /veh RASL12 (11751679_a_at) / RFU CDKN2B (11736163_a_at) / Fold change /veh CDKN2B (11736163_a_at) / RFU PRF1 (11729649_at) / Fold change /veh PRF1 (11729649_at) / RFU, ZNF638 /// ZNF638-IT1 / Fold change vs veh, ZNF638 /// ZNF638-IT1 / RFU, PANK3 / Fold change vs veh, PANK3 / RFU, SH3YL1 / Fold change vs veh, SH3YL1 / RFU, ZEB2 / Fold change vs veh, ZEB2 / RFU, NRIP1 / Fold change vs veh, NRIP1 / RFU, PTTG1IP / Fold change vs veh, PTTG1IP / RFU, CAPN2 / Fold change vs veh, CAPN2 / RFU, MED14 / Fold change vs veh, MED14 / RFU, SNORA58 / Fold change vs veh, SNORA58 / RFU, C1orf63 / Fold change vs veh, C1orf63 / RFU, LRRFIP1 / Fold change vs veh, LRRFIP1 / RFU, NDUFAF7 / Fold change vs veh, NDUFAF7 / RFU, SLC12A2 / Fold change vs veh, SLC12A2 / RFU, IBTK / Fold change vs veh, IBTK / RFU, ESF1 / Fold change vs veh, ESF1 / Fold change vs veh, TMEM50B / RFU, TAOK1 / Fold change vs veh, TAOK1 / RFU, ACBD3 / Fold change vs veh, ACBD3 / RFU, TMA16 / Fold change vs veh, TMA16 / RFU, RWDD3 / Fold change vs veh, RWDD3 / RFU, BCAT1 / Fold change vs veh, BCAT1 / RFU, EDEM3 / Fold change vs veh, EDEM3 / RFU, TMEM33 / Fold change vs veh, TMEM33 / RFU, WDR75 / Fold change vs veh, WDR75 / RFU, AHCTF1 / Fold change vs veh, AHCTF1 / RFU, TFRC / Fold change vs veh, TFRC / RFU, ZDHHC17 / Fold change vs veh, ZDHHC17 / RFU, NOM1 / Fold change vs veh, NOM1 / RFU, ARL8B / Fold change vs veh, ARL8B / RFU, ZBTB11 / Fold change vs veh, ZBTB11 / RFU, TAMM41 / Fold change vs veh, TAMM41 / RFU, KIAA1704 /// LOC100996395 / Fold change vs veh, KIAA1704 /// LOC100996395 / RFU, ING1 / Fold change vs veh, ING1 / RFU, TRMT61B / Fold change vs veh, TRMT61B / RFU, FUBP3 / Fold change vs veh, FUBP3 / RFU, TP53 / Fold change vs veh, TP53 / RFU, TNKS2 / Fold change vs veh, TNKS2 / RFU, ZFP14 / Fold change vs veh, ZFP14 / RFU, ACTR2 / Fold change vs veh, ACTR2 / RFU, PPP3R1 / Fold change vs veh, PPP3R1 / RFU, PIK3R1 / Fold change vs veh, PIK3R1 / RFU, HNRNPA1 / Fold change vs veh, HNRNPA1 / RFU, RNF170 / Fold change vs veh, RNF170 / RFU, ZNF28 / Fold change vs veh, ZNF28 / RFU, RNGTT / Fold change vs veh, RNGTT / RFU, OGT / Fold change vs veh, OGT / RFU, BRD1 / Fold change vs veh, BRD1 / RFU, MARS / Fold change vs veh, MARS / RFU, ZNF655 / Fold change vs veh, ZNF655 / RFU, FAHD1 / Fold change vs veh, FAHD1 / RFU, BDP1 / Fold change vs veh, BDP1 / RFU, LRRCC1 / Fold change vs veh, LRRCC1 / RFU, ARID1A / Fold change vs veh, ARID1A / RFU, ZNF146 / Fold change vs veh, ZNF146 / RFU, ZNF330 / Fold change vs veh, ZNF330 / RFU, GPN3 / Fold change vs veh, GPN3 / RFU, C9orf123 / Fold change vs veh, C9orf123 / RFU, N4BP2L2 / Fold change vs veh, N4BP2L2 / RFU, ARFIP1 / Fold change vs veh, ARFIP1 / RFU, FAM179B / Fold change vs veh, FAM179B / RFU, BCL10 / Fold change vs veh, BCL10 / RFU, UHRF1BP1L / Fold change vs veh, UHRF1BP1L / RFU, BET1 / Fold change vs veh, BET1 / RFU, CNOT2 / Fold change vs veh, CNOT2 / RFU, ZNF268 / Fold change vs veh, ZNF268 / Fold change vs veh, ZNF507 / RFU, DGCR2 / Fold change vs veh, DGCR2 / RFU, WDSUB1 / Fold change vs veh, WDSUB1 / Fold change vs veh, HSP90B1 /// MIR3652 / RFU, ADSS / Fold change vs veh, ADSS / RFU, GK / Fold change vs veh, GK / RFU, ZNF148 / Fold change vs veh, ZNF148 / RFU, TAF9 / Fold change vs veh, TAF9 / RFU, SLC1A5 / Fold change vs veh, SLC1A5 / RFU, SLMO2 / Fold change vs veh, SLMO2 / RFU, ABCC4 / Fold change vs veh, ABCC4 / RFU, LOC101060439 /// RAP1B / Fold change vs veh, LOC101060439 /// RAP1B / RFU, RFX7 / Fold change vs veh, RFX7 / RFU, GTPBP10 / Fold change vs veh, GTPBP10 / RFU, CNEP1R1 / Fold change vs veh, CNEP1R1 / RFU, BIVM-ERCC5 /// ERCC5 / Fold change vs veh, BIVM-ERCC5 /// ERCC5 / RFU, ILF3 / Fold change vs veh, ILF3 / RFU 11762660_at / Fold change /veh 11762660_at / RFU VCAN (11757783_s_at) / Fold change /veh VCAN (11757783_s_at) / RFU DDX43 (11728927_at) / Fold change /veh DDX43 (11728927_at) / RFU KRT8 (11758188_x_at) / Fold change /veh KRT8 (11758188_x_at) / RFU NKD1 (11759106_at) / Fold change /veh NKD1 (11759106_at) / RFU SRD5A1 (11742802_a_at) / Fold change /veh SRD5A1 (11742802_a_at) / RFU TPSAB1 /// TPSB2 (11721975_s_at) / Fold change /veh TPSAB1 /// TPSB2 (11721975_s_at) / RFU GSTM3 (11746129_a_at) / Fold change /veh GSTM3 (11746129_a_at) / RFU IL23R (11737362_x_at) / Fold change /veh IL23R (11737362_x_at) / RFU TMEM51 (11727254_a_at) / Fold change /veh TMEM51 (11727254_a_at) / RFU PIWIL2 (11732686_x_at) / Fold change /veh PIWIL2 (11732686_x_at) / RFU ORM1 (11744905_x_at) / Fold change /veh ORM1 (11744905_x_at) / RFU CCDC152 (11743942_at) / Fold change /veh CCDC152 (11743942_at) / RFU ECM1 (11717891_a_at) / Fold change /veh ECM1 (11717891_a_at) / RFU IL23R (11748794_a_at) / Fold change /veh IL23R (11748794_a_at) / RFU TNFAIP8L3 (11732012_x_at) / Fold change /veh TNFAIP8L3 (11732012_x_at) / RFU MBOAT4 (11741988_at) / Fold change /veh MBOAT4 (11741988_at) / RFU 11764193_at / Fold change /veh 11764193_at / RFU TMEM53 (11763286_at) / Fold change /veh TMEM53 (11763286_at) / RFU MAGEB2 (11727129_at) / Fold change /veh MAGEB2 (11727129_at) / RFU TMEM200A (11744735_a_at) / Fold change /veh TMEM200A (11744735_a_at) / RFU CCDC152 (11751479_a_at) / Fold change /veh CCDC152 (11751479_a_at) / RFU FAM211A (11726209_a_at) / Fold change /veh FAM211A (11726209_a_at) / RFU RGS16 (11746705_a_at) / Fold change /veh RGS16 (11746705_a_at) / RFU VCAN (11755009_s_at) / Fold change /veh VCAN (11755009_s_at) / RFU RHOB (11743442_s_at) / Fold change /veh RHOB (11743442_s_at) / RFU RGS16 (11720943_a_at) / Fold change /veh RGS16 (11720943_a_at) / RFU RGS16 (11720944_at) / Fold change /veh RGS16 (11720944_at) / RFU, VPS4B / Fold change vs veh, VPS4B / RFU, CREB1 / Fold change vs veh, CREB1 / RFU, DNAJC13 / Fold change vs veh, DNAJC13 / RFU, GNAQ / Fold change vs veh, GNAQ / RFU, CDK5R1 / Fold change vs veh, CDK5R1 / RFU, ZRANB3 / Fold change vs veh, ZRANB3 / RFU, CUL4A / Fold change vs veh, CUL4A / RFU, CCNY / Fold change vs veh, CCNY / RFU, UFL1 / Fold change vs veh, UFL1 / RFU, COG3 / Fold change vs veh, COG3 / RFU, DIAPH2 / Fold change vs veh, DIAPH2 / RFU, SKA2 / Fold change vs veh, SKA2 / RFU, AFF3 / Fold change vs veh, AFF3 / RFU, LMF1 / Fold change vs veh, LMF1 / RFU, IPO11 / Fold change vs veh, IPO11 / RFU, DFFB / Fold change vs veh, DFFB / RFU, FOXP1 / Fold change vs veh, FOXP1 / RFU, CARD8 / Fold change vs veh, CARD8 / RFU, STRN3 / Fold change vs veh, STRN3 / RFU, ADK / Fold change vs veh, ADK / RFU, RASSF2 / Fold change vs veh, RASSF2 / RFU, WIPF1 / Fold change vs veh, WIPF1 / RFU, LARP1B / Fold change vs veh, LARP1B / RFU, RASA1 / Fold change vs veh, RASA1 / RFU, RB1 / Fold change vs veh, RB1 / RFU, PPFIA1 / Fold change vs veh, PPFIA1 / RFU, MAT2A / Fold change vs veh, MAT2A / RFU, CCT5 / Fold change vs veh, CCT5 / RFU, WDR92 / Fold change vs veh, WDR92 / RFU, CUX1 / Fold change vs veh, CUX1 / RFU, TTC7A / Fold change vs veh, TTC7A / RFU, TMEM135 / Fold change vs veh, TMEM135 / RFU, DEPTOR / Fold change vs veh, DEPTOR / RFU, CPM / Fold change vs veh, CPM / RFU, DNAJB6 / Fold change vs veh, DNAJB6 / RFU, CACNA2D3 / Fold change vs veh, CACNA2D3 / RFU, DTX4 / Fold change vs veh, DTX4 / RFU, TFCP2 / Fold change vs veh, TFCP2 / RFU, GMCL1 /// GMCL1P1 / Fold change vs veh, GMCL1 /// GMCL1P1 / RFU, AEBP2 / Fold change vs veh, AEBP2 / RFU, SNHG1 /// SNORD22 /// SNORD25 /// SNORD26 /// SNORD27 /// SNORD28 /// SNORD29 /// SNORD31 / Fold change vs veh, SNHG1 /// SNORD22 /// SNORD25 /// SNORD26 /// SNORD27 /// SNORD28 /// SNORD29 /// SNORD31 / Fold change (Aza/veh), C12orf56 (ProbeSet 11735607_a_at) / Fold change (ACY-1035/veh), C12orf56 (ProbeSet 11735607_a_at) / Fold change (Aza/veh), FGFR1OP (ProbeSet 11751329_s_at) / Fold change (ACY-1035/veh), FGFR1OP (ProbeSet 11751329_s_at) / Fold change (Aza/veh), VPS36 (ProbeSet 11739960_a_at) / Fold change (ACY-1035/veh), VPS36 (ProbeSet 11739960_a_at) / RFU SYPL1 (11715823_x_at) / Fold change /veh SYPL1 (11715823_x_at) / RFU IGFBP7 (11715501_s_at) / Fold change /veh IGFBP7 (11715501_s_at) / RFU REEP3 (11722064_at) / Fold change /veh REEP3 (11722064_at) / RFU IGLL1 (11728026_x_at) / Fold change /veh IGLL1 (11728026_x_at): dose or concentration left out as unconfirmed
Details: ProbeSet 11757268_x_at; LIST B

## Nc1ncn([C@@H]2O[C@H](CO)[C@@H](O)[C@H]2O)c(=O)n1 [azacitidine]
  Fold change vs veh, HNRNPA1: 0.91
